Assay results from US6358885B1, “Substituted phenylheterocyclic herbicides” (Mississippi State University, priority 1992, dated 2002).

What was measured:
sorghum [1] = test: Test C preemergence/postemergence greenhouse plant response rating 0 to 100; type: in vivo, Sorghum bicolor; conditions: POSTEMERGENCE; for Plant response rating, Sorghum: 0 to 100 scale
Procedure, shortened: (§1)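 Compounds in non-phytotoxic solvent went onto sandy loam before emergence (seeded one day earlier) or onto plants at the one-to-four leaf stage. Duck salad was treated via flood water (~2.5 cm, maintained) over silt loam.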

rape = test: Test B preemergence/postemergence greenhouse plant response rating 0 to 10; type: in vivo, Brassica napus; conditions: 0 to 10 scale
Procedure, shortened: (§2)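 Postemergence treatment of plants two to eighteen cm tall ran alongside preemergence treatment of planted seed, each using compound in a non-phytotoxic solvent.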

wild buckwheat = test: Test C preemergence/postemergence greenhouse plant response rating 0 to 100; type: in vivo, Polygonum convolvulus; conditions: POSTEMERGENCE; for Plant response rating, Wild buckwheat: 0 to 100 scale
Procedure, shortened: as §1

rice = test: Test B preemergence/postemergence greenhouse plant response rating 0 to 10; type: in vivo, Oryza sativa; conditions: 0 to 10 scale
Procedure, shortened: as §2

bedstraw [2] = test: Test C preemergence/postemergence greenhouse plant response rating 0 to 100; type: in vivo, Galium aparine; conditions: POSTEMERGENCE; for Plant response rating, Bedstraw: 0 to 100 scale
Procedure, shortened: as §1

blackgrass [3] = test: as above; type: in vivo, Alopecurus myosuroides; conditions: POSTEMERGENCE; for Plant response rating, Blackgrass: 0 to 100 scale
Procedure, shortened: as §1

pigweed = test: as above; type: in vivo, Amaranthusretroflexus; conditions: POSTEMERGENCE; for Plant response rating Pigweed: 0 to 100 scale
Procedure, shortened: as §1

cheatgrass = test: Test B preemergence/postemergence greenhouse plant response rating 0 to 10; type: in vivo, Bromus secalinus; conditions: 0 to 10 scale
Procedure, shortened: as §2

blackgrass [4] = test: as above; type: in vivo, Alopecurus myosuroides; conditions: 0 to 10 scale
Procedure, shortened: as §2

barley [5] = test: as above; type: in vivo, Hordeum vulgare; conditions: 0 to 10 scale
Procedure, shortened: as §2

sorghum [6] = test: as above; type: in vivo, Sorghum bicolor; conditions: 0 to 10 scale
Procedure, shortened: as §2

ryegrass = test: Test C preemergence/postemergence greenhouse plant response rating 0 to 100; type: in vivo, Lolium multiflorum; conditions: POSTEMERGENCE; for Plant response rating Ryegrass: 0 to 100 scale
Procedure, shortened: as §1

wheat = test: Test B preemergence/postemergence greenhouse plant response rating 0 to 10; type: in vivo, Triticum aestivum; conditions: 0 to 10 scale
Procedure, shortened: as §2

barley [7] = test: Test C preemergence/postemergence greenhouse plant response rating 0 to 100; type: in vivo, Hordeum vulgare; conditions: POSTEMERGENCE; for Plant response rating Barley Igri: 0 to 100 scale
Procedure, shortened: as §1

sugar beet = test: as above; type: in vivo, Beta vulgaris; conditions: POSTEMERGENCE; for Plant response rating, Sugar beet: 0 to 100 scale
Procedure, shortened: as §1

bedstraw [8] = test: Test B preemergence/postemergence greenhouse plant response rating 0 to 10; type: in vivo, Galium aparine; conditions: 0 to 10 scale
Procedure, shortened: as §2

duck salad = test: Test C flood test plant response rating 0 to 100; type: in vivo, Heteranthera limosa; conditions: for Plant response rating Duck salad: flood test species listed under POSTEMERGENCE, 0 to 100 scale
Procedure, shortened: as §1

cotton = test: Test B preemergence/postemergence greenhouse plant response rating 0 to 10; type: in vivo, Gossypium hirsutum; conditions: 0 to 10 scale
Procedure, shortened: as §2

COC(=O)c1cc(-c2nn3c(c2Cl)CCCC3)c(F)cc1Cl [Compound 43]
2: Plant response rating, Rice (rice; Rate 200 g/ha, PREEMERGENCE) | Plant response rating, Cheatgrass (cheatgrass; PREEMERGENCE, Rate 50 g/ha) | Plant response rating, Blackgrass (blackgrass [4]; PREEMERGENCE, Rate 50 g/ha) | Plant response rating, Sorghum (sorghum [6]; Rate 200 g/ha, PREEMERGENCE) | Plant response rating, Wheat (wheat; Rate 200 g/ha, PREEMERGENCE)
85: Plant response rating Ryegrass (ryegrass; 250 g/ha)
100: Plant response rating, Sorghum (sorghum [1]; 62 g/ha) | Plant response rating, Sorghum (sorghum [1]; 250 g/ha) | Plant response rating, Wild buckwheat (wild buckwheat; 62 g/ha) | Plant response rating, Wild buckwheat (wild buckwheat; 250 g/ha) | Plant response rating (0 to 100), Wild buckwheat (wild buckwheat; Rate 16 g/ha) | Plant response rating, Bedstraw (bedstraw [2]; 250 g/ha) | Plant response rating Pigweed (pigweed; 62 g/ha) | Plant response rating Pigweed (pigweed; 250 g/ha) | Plant response rating (0 to 100), Pigweed (pigweed; Rate 16 g/ha)
7: Plant response rating, Rice (rice; POSTEMERGENCE, Rate 50 g/ha) | Plant response rating, Blackgrass (blackgrass [4]; POSTEMERGENCE, Rate 50 g/ha)
20: Plant response rating (0 to 100), Blackgrass (blackgrass [3]; Rate 4 g/ha)
6: Plant response rating, Cheatgrass (cheatgrass; POSTEMERGENCE, Rate 50 g/ha)
0: Plant response rating, Rape (rape; PREEMERGENCE, Rate 50 g/ha) | Plant response rating, Barley (barley [5]; PREEMERGENCE, Rate 50 g/ha) | Plant response rating, Barley (barley [5]; Rate 200 g/ha, PREEMERGENCE) | Plant response rating, Sorghum (sorghum [6]; PREEMERGENCE, Rate 50 g/ha) | Plant response rating, Wheat (wheat; PREEMERGENCE, Rate 50 g/ha) | Plant response rating, Bedstraw (bedstraw [8]; PREEMERGENCE, Rate 50 g/ha) | Plant response rating (0 to 100), Duck salad (duck salad; POSTEMERGENCE section, flood test, Rate 4 g/ha) | Plant response rating (0 to 100), Duck salad (duck salad; Rate 16 g/ha, under POSTEMERGENCE head (flood test species)) | Plant response rating, Cotton (cotton; PREEMERGENCE, Rate 50 g/ha)
90: Plant response rating, Blackgrass (blackgrass [3]; 250 g/ha) | Plant response rating (0 to 100), Pigweed (pigweed; Rate 4 g/ha)
9: Plant response rating, Rape (rape; POSTEMERGENCE, Rate 50 g/ha) | Plant response rating, Rape (rape; Rate 200 g/ha, PREEMERGENCE) | Plant response rating, Rice (rice; Rate 200 g/ha, POSTEMERGENCE) | Plant response rating, Cheatgrass (cheatgrass; POSTEMERGENCE, Rate 200 g/ha) | Plant response rating, Bedstraw (bedstraw [8]; Rate 200 g/ha, PREEMERGENCE)
8: Plant response rating, Blackgrass (blackgrass [4]; POSTEMERGENCE, Rate 200 g/ha) | Plant response rating, Sorghum (sorghum [6]; Rate 200 g/ha, POSTEMERGENCE) | Plant response rating, Wheat (wheat; Rate 200 g/ha, POSTEMERGENCE)
3: Plant response rating, Cheatgrass (cheatgrass; Rate 200 g/ha, PREEMERGENCE) | Plant response rating, Barley (barley [5]; POSTEMERGENCE, Rate 50 g/ha) | Plant response rating, Barley (barley [5]; POSTEMERGENCE, Rate 200 g/ha) | Plant response rating, Wheat (wheat; POSTEMERGENCE, Rate 50 g/ha)
45: Plant response rating Duck salad (duck salad; 250 g/ha)
1: Plant response rating, Rice (rice; PREEMERGENCE, Rate 50 g/ha) | Plant response rating, Cotton (cotton; Rate 200 g/ha, PREEMERGENCE)
70: Plant response rating, Bedstraw (bedstraw [2]; 62 g/ha)
50: Plant response rating Ryegrass (ryegrass; 62 g/ha) | Plant response rating Barley Igri (barley [7]; 62 g/ha)
40: Plant response rating (0 to 100), Sorghum (sorghum [1]; Rate 4 g/ha) | Plant response rating (0 to 100), Bedstraw (bedstraw [2]; Rate 4 g/ha) | Plant response rating (0 to 100), Ryegrass (ryegrass; Rate 16 g/ha) | Plant response rating (0 to 100), Barley Igri (barley [7]; Rate 16 g/ha) | Plant response rating (0 to 100), Sugar beet (sugar beet; Rate 16 g/ha)
5: Plant response rating, Blackgrass (blackgrass [4]; Rate 200 g/ha, PREEMERGENCE) | Plant response rating, Sorghum (sorghum [6]; POSTEMERGENCE, Rate 50 g/ha)
10: Plant response rating, Rape (rape; Rate 200 g/ha, POSTEMERGENCE) | Plant response rating, Bedstraw (bedstraw [8]; POSTEMERGENCE, Rate 50 g/ha) | Plant response rating, Bedstraw (bedstraw [8]; POSTEMERGENCE, Rate 200 g/ha) | Plant response rating, Cotton (cotton; POSTEMERGENCE, Rate 50 g/ha) | Plant response rating, Cotton (cotton; POSTEMERGENCE, Rate 200 g/ha)
25: Plant response rating Duck salad (duck salad; 62 g/ha)
60: Plant response rating (0 to 100), Sorghum (sorghum [1]; Rate 16 g/ha) | Plant response rating (0 to 100), Wild buckwheat (wild buckwheat; Rate 4 g/ha) | Plant response rating (0 to 100), Bedstraw (bedstraw [2]; Rate 16 g/ha) | Plant response rating, Blackgrass (blackgrass [3]; 62 g/ha) | Plant response rating Barley Igri (barley [7]; 250 g/ha) | Plant response rating, Sugar beet (sugar beet; 62 g/ha)
80: Plant response rating, Sugar beet (sugar beet; 250 g/ha)
30: Plant response rating (0 to 100), Blackgrass (blackgrass [3]; Rate 16 g/ha) | Plant response rating (0 to 100), Ryegrass (ryegrass; Rate 4 g/ha) | Plant response rating (0 to 100), Barley Igri (barley [7]; Rate 4 g/ha) | Plant response rating (0 to 100), Sugar beet (sugar beet; Rate 4 g/ha)
